According to publication PMC4557752, “EST-based in silico identification and in vitro test of antimicrobial peptides in Brassica napus” (BMC Genomics, 2015):

How the values were obtained:
E. coli ATCC2592 = assay: radial diffusion assay against E. coli (G- strain); format: cell-based, Escherichia coli; parameters: G- strain halo diameter: unit not given here; settings: for G- strain halo diameter: radial diffusion, E. coli ATCC2592 approx 2 x 10^6 cfu/mL in 1 % agarose underlay gel, 3.5 mm holes, 100 μL AMP sample, 37 °C 12 h, diameter of clear zone, performed in triplicate, '-' = no zone
Description: (§1) Purified His-EDDIE-AMPs inclusion bodies were refolded by rapid 1:50 dilution in an optimized refolding buffer (500 mM NaCl, 20 mM Tris, 2 mM EDTA, 5 % glycerol, 10 mM DTT, 0.01 % Tween-20, pH 7.5) and incubated at an appropriate temperature without stirring. During refolding, EDDIE restored its correct conformation and self-cleaved at the specific sites, releasing AMPs from the fusion bodies. Renatured protein solution was then clarified by centrifugation at 15,000 x g at 4 °C for 30 min. The insoluble sample was removed by filtering through a 0.45 μm membrane, leaving the AMPs in the supernatant. The supernatants were transferred to a Ni-NTA His-bind column for purification.
(§2) The antimicrobial activities of recombinant AMPs were detected using a radial diffusion assay. E. coli ATCC2592 and M. luteus ACCC11001 were grown on the mid-logarithmic phase and washed. Approximately 2 × 10^6 cfu/mL bacteria were incorporated into a thin (1.2 mm) agarose underlay gel containing 1 % (w/v) agarose. Holes with 3.5 mm diameter were punched into the solidified agarose and were filled with 100 μL of AMP sample. After the plates were incubated at 37 °C for 12 h, the diameter of the clear zone surrounding each well was measured to evaluate the antimicrobial activity. The refolding buffer was used as negative controls. The above assays were performed in triplicate.

M. luteus ACCC11001 = assay: radial diffusion assay against M. luteus (G+ strain); format: cell-based, Micrococcus luteus; parameters: G+ strain halo diameter: unit not given here; settings: for G+ strain halo diameter: radial diffusion, M. luteus ACCC11001 approx 2 x 10^6 cfu/mL in 1 % agarose underlay gel, 3.5 mm holes, 100 μL AMP sample, 37 °C 12 h, diameter of clear zone, performed in triplicate, '-' = no zone
Description: as §1, §2

S. sclerotiorum = assay: antifungal radial diffusion assay on potato plates; format: cell-based, Sclerotinia sclerotiorum; settings: PDA/potato plates, 200 μL sample beside the fungi, 22 °C 72 h; refolding buffer control
Description: as §1
The antifungal activity of the purified products was assayed using an ultra-sensitive radial diffusion method on thin potato plates (200 g potato, 20 g glucose, 15–20 g agar powder, 1 L double-distilled water) seeded with filamentous fungi. Briefly, 9-cm plates were poured with an underlay potato medium, and S. sclerotiorum on a 1-cm diameter potato medium were seeded on the center of the plates, which were then incubated at 22 °C until hypha grew to 2 cm in diameter. Two hundred microliters of the test sample and negative control (refolding buffer) was placed beside the filamentous fungi, and the plates were incubated at 22 °C for 72 h; the size of the clear area around the filamentous fungi was then measured.

Sequence | G- strain halo diameter (E. coli ATCC2592) | G+ strain halo diameter (M. luteus ACCC11001) | growth of the filamentous fungal strain S. sclerotiorum (in words) (S. sclerotiorum) | antimicrobial activity to Gram positive strains (in words) (M. luteus ACCC11001; radial diffusion assay, M. luteus, refolding buffer as negative control) | antimicrobial activity to Gram negative strains (in words) (E. coli ATCC2592; radial diffusion assay, E. coli, refolding buffer as negative control)
AITCGTVTSSLAPCATLSSSGGEMPPPLCGGCAGVKKLNGMAQTTADRQ [Bn7, recombinant B. napus AMP candidate, 49 aa] | 1.311 | – | – | – | –
ALTCGTVNSNVAPCIGYITQGGPLPGACCTG [Bn27, recombinant B. napus AMP candidate, 31 aa] | 1.756 | 2.044 | – | – | –
ALTCGTVNSNVARALAILPRGDRCPERAAPAKAN [Bn26, recombinant B. napus AMP candidate, 34 aa] | 1.533 | 1.489 | – | – | –
AVTCNNVVGDLYPCLSYVMRGGNAPSTNCCNGVRTLNSQAQTTADRQSVCRCIKNA [Bn21, recombinant B. napus AMP candidate, 56 aa] | 1.711 | 1.867 | – | – | –
CAPNHCCSQFGYCGTNDAHCGAGCKS [Bn29, recombinant B. napus AMP candidate] | 1.7 | – | – | – | –
CASGVGCSQYGYCGNGPDYCG [Bn28, recombinant B. napus AMP candidate, 21 aa] | 0.867 | 1.089 | – | – | –
EQCGRQAGGALCPNGLCCSNLAGAAIPNRIANRPVARASVAA [Bn2, recombinant B. napus AMP candidate, 42 aa] | 1.189 | 1.067 | – | – | –
EQCGRRRVERCSRMAVLCEFGWCGDTEPYCKQTGCQSQCGG [Bn3, recombinant B. napus AMP candidate, 41 aa] | 1.867 | 1.811 | – | – | –
GKPSGSEKDKDKKKQPITRSARAGLQFPVGRVHRLLK [Bn5, recombinant B. napus AMP candidate, 37 aa] | 1.711 | 2.2 | – | – | –
GRKAGGPKNKSVSKSIKAGLQFPVGRITRFLKKGRYAQRLGGERREIRLLTKPE [Bn1, recombinant B. napus AMP candidate, 54 aa] | 1.256 | 1.633 | – | – | –
IQCGKFFSCSEINTCCCLFKCGKYYFGWGCCPLEASTCCDDNTSCCP [Bn22, recombinant B. napus AMP candidate] | 0.433 | – | – | – | –
KECEERSRQSRSFSVICKYDYACQNHCINLEKADGGQCNSRSPTAKCICYFQC [Bn8, recombinant B. napus AMP candidate, 53 aa] | 1.656 | 2.056 | – | – | –
KTCCPTTTARRIFDSCYGPSVPLTFCARISGCHLFPQSTTCPPEFP [Bn18, recombinant B. napus AMP candidate, 46 aa] | 1.978 | 0.107 | – | – | –
KTHEEKSKTYRRLCVDETGCNHACIFNEHFAGGHCRHLECFC [Bn17, recombinant B. napus AMP candidate, 42 aa] | 0.467 | 0.178 | – | – | –
LQFPVGRISRYLKKGRYAIRYGAGAP [Bn30, recombinant B. napus AMP candidate, 26 aa] | 1.289 | 1.4 | grow normally | – | –
NICCSQYGYCGTTADYCSPDNNCQSNC [Bn15, recombinant B. napus AMP candidate, 27 aa] | – | 0.944 | – | – | –
NQCGQFVSGALINTCCCLFKCG [Bn23, recombinant B. napus AMP candidate, 22 aa] | 0.756 | 1.233 | – | – | –
NWCGGKCEVRCKDVGMNDRCLKYCGICCKECKC [Bn20, recombinant B. napus AMP candidate, 33 aa] | 1.489 | 1.089 | – | – | –
PPTQNPSMAPPTQNPYGQPMAPPTQNPYGQPMAPP [Bn19, recombinant B. napus AMP, 35 aa; new member of the proline-rich antimicrobial peptide family, similar to SP-B] | 3.011 | 3.022 | – | highest activities | highest activities
QNCGCAPNLCCSQFGYCGSTDAYRDWLP [Bn25, recombinant B. napus AMP candidate, 28 aa] | 1.567 | 0.367 | – | – | –
RCREASRKKVCYRAGGSCCAKCQCVPPGTSGNTASCPCYANLRTHGNKLKCP [Bn4, recombinant B. napus AMP candidate, 52 aa] | 2.122 | 2.167 | – | – | –
RMCETSSQLFNGPCLSTNCANICQNEGFPDGDCKGFRLRCICNRPC [Bn13, recombinant B. napus AMP candidate, 46 aa] | 2.222 | 1.722 | – | – | –
RTCESRSHRFKGPCVSENNCANVCHT [Bn24, recombinant B. napus AMP candidate, 26 aa] | – | 0.967 | – | – | –
RVCNTQSHHYRGPCWRNHNCAMVCRTEGFSGGDCVGIPRRCYCTKRC [Bn16, recombinant B. napus AMP candidate, 47 aa] | – | 1.322 | – | – | –
VVCDKSYTCPDKSTCCCVSESKGKCDSWGCCPFESATCCENGSSCCP [Bn10, recombinant B. napus AMP candidate, 47 aa] | 1.722 | 1.2 | – | – | –
YVCTRVDCSGRCKGRCNKSSRPNLCLRACNSCCFRCNCVPPPGTHGNHHLRPCYASITT [Bn14, recombinant B. napus AMP candidate, 59 aa] | 2.589 | 2.489 | – | – | –
